According to US8865672B2, “Prevention of tissue ischemia and related methods” (The United States of America, as represented by the …, priority 2006, dated 2014):
“Also recorded” adds a separate entry of the source.

What was measured:
[1] = test system: myosin light chain-2 (MLC) in HAVSMC; assay: Myosin light chain phosphorylation in VSMC; assay type: cell-based, human; settings: S1P 100 nM, DEA/NO 10 μM, TSP1 2.2 nM
Procedure: VSMC were plated at 90% confluence and grown in smooth muscle growth media containing 2% FBS overnight. To stimulate MLC phosphorylation, sphingosine-1-phosphate (SIP; Biomol International, Plymouth, Pa.) was added at a final concentration of 100 nM. The nitric oxide donor DEA/NO was added at a final concentration of 10 μM. For TSP1 pretreatment, cells were incubated with 2.2 nM TSP1 before addition of SIP or DEA/NO. Cells were subsequently washed twice with PBS and lysed immediately in 1×SDS sample buffer containing 10 μg/mL leupeptin, 10 μg/mL aprotinin, 1 mM Na3VO4, and 40 mM NaF. Lysates prepared in the SDS sample buffer described above were electrophoresed in 4-12% BisTris NuPAGE gels and transferred to PVDF membranes prior to immunoblotting with rabbit polyclonal antibodies against myosin light chain-2 (MLC) and phospho-MLC2 (T18/S19, Cell Signaling Technology, Danvers, Mass.).

Rap1 = Rap1 pulldown assay in platelets; assay type: cell-based, human; settings: thrombin
Procedure: Platelets were diluted to 5×10^8 platelets/mL in Tyrode's buffer and treated with various reagents for the indicated times. Immediately following treatment, platelets were pelleted at 13,000 g for 30 seconds at 4° C. and resuspended in ice-cold lysis buffer containing 20 mM HEPES (pH 7.5), 100 mM NaCl, 10 mM EGTA, 20 mM MgCl2, 8 mM α-glycerophosphate, 1% Triton X-100, 1 mM phenylmethylsulfonylfluoride, 40 mM NaF, 1 mM Na3VO4, 10 μg/mL aprotinin, and 10 μg/mL leupeptin. Lysates were centrifuged at 13,000 g for 5 minutes at 4° C. and the supernatants were incubated for 15 minutes on a tumbler at 4° C. with glutathione Sepharose 4B beads (Amersham) prebound with a GST-Ral GDS RBD fusion protein (kind gift of J. Silvio Gutkind, NIH, Bethesda, Md.). Bead complexes were washed by centrifugation at 6,000 g for 30 seconds at 4° C. followed by resuspension in 0.5 mL lysis buffer; 2 washes were performed for each sample. After the second wash, beads were resuspended in an equal volume of 2×SDS sample buffer and stored at −20° C. For Western analysis, bead-bound proteins in sample buffer were boiled for 10 minutes and subjected to electrophoresis on NuPAGE 10% Bis-Tris gels (Invitrogen, Carlsbad, Calif.), transferred to Immobilon-P PVDF membranes (Millipore, Billerica, Mass.), and blotted with rabbit polyclonal anti-Rapt (sc-65; Santa Cruz Biotechnology, Santa Cruz, Calif.).

Substance: TSP1: thrombospondin-1 prepared from human platelets
- MLC dephosphorylation induced by NO [1]: partially restored MLC phosphorylation
- Rap1 activation (GTP loading) (Rap1): reversed the inhibition of Rap1 activation; also recorded: did not increase Rap1 activation
